What all share (format): biochemical
Assay [1] deals with T1, PTPN2 (TC-PTP); GST-TC-PTP catalytic domain (Homo sapiens, UniProt P17706).
T1 sequence (P17706 1-314 limits assumed): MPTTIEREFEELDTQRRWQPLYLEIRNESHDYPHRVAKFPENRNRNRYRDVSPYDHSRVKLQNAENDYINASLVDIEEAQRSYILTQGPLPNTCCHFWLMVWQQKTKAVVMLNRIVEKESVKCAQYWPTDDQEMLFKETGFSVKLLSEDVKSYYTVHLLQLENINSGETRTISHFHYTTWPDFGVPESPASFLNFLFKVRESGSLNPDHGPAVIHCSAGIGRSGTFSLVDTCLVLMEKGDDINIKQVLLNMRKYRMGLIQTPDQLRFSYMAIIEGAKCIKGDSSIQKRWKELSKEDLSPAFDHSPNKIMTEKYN
Description: DiFMUP fluorescence phosphatase assay.

Assay [2] concerns the target T2, PTPN1 (PTP1B); GST-PTP1B catalytic domain (Homo sapiens, UniProt P18031).
T2 sequence (P18031 1-321 limits assumed): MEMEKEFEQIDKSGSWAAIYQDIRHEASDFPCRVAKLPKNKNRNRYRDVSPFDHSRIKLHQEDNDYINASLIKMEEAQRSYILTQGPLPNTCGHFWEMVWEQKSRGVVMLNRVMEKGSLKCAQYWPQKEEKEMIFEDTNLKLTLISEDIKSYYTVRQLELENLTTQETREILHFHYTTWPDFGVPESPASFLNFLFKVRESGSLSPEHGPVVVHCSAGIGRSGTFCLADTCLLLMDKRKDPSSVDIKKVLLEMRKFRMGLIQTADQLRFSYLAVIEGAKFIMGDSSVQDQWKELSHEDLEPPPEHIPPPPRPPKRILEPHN
The assay is described as follows: DiFMUP fluorescence phosphatase assay.

A further assay deals with T3, PTPN9 (MEG2) (Homo sapiens, UniProt P43378).
T3 sequence (P43378 1-593): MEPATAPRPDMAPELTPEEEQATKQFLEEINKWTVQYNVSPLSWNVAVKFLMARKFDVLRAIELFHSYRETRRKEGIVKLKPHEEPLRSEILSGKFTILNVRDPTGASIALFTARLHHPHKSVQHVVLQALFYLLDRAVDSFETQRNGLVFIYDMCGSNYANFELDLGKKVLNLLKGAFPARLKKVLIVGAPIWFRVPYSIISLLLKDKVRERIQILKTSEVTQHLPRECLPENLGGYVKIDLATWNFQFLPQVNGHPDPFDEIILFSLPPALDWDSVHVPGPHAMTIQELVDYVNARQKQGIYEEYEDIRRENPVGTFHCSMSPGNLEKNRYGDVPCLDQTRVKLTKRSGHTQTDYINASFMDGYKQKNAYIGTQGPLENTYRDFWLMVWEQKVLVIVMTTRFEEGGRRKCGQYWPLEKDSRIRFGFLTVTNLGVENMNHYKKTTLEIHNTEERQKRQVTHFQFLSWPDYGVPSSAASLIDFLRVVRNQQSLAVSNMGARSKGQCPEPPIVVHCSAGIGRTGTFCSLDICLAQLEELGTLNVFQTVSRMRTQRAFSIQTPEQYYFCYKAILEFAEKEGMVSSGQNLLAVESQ
Description: in vitro phosphatase activity curve.

Where two headings read alike, the source gives them in different places.

The values that follow come from paper doi:10.1101/2025.07.02.662801v1 (biorxiv, 2025).

Regarding `N#Cc1ccc2cc(Br)c(C(F)(F)P(=O)(O)O)cc2c1` [L598], the IC50 (commonly the point on the concentration scale where inhibition reaches its midpoint) in assay [1] (50 mM HEPES pH 7.0, 3 mM DTT, 1 mg/mL BSA, 25 °C, DiFMUP at Km) was determined as 489 nM.

For the molecule `N#CCc1ccc2cc(Br)c(C(F)(F)P(=O)(O)O)cc2c1` [KQ791], the IC50 in assay [2] was found to be 188 nM; at PTPN9 (MEG2), 7200 nM; in assay [1], 188 nM.
